Data set [1] addresses T1, ATP-binding cassette subfamily G member 2 (ABCG2) (Homo sapiens, UniProt Q9UNQ0).
T1 sequence (Q9UNQ0 1-655): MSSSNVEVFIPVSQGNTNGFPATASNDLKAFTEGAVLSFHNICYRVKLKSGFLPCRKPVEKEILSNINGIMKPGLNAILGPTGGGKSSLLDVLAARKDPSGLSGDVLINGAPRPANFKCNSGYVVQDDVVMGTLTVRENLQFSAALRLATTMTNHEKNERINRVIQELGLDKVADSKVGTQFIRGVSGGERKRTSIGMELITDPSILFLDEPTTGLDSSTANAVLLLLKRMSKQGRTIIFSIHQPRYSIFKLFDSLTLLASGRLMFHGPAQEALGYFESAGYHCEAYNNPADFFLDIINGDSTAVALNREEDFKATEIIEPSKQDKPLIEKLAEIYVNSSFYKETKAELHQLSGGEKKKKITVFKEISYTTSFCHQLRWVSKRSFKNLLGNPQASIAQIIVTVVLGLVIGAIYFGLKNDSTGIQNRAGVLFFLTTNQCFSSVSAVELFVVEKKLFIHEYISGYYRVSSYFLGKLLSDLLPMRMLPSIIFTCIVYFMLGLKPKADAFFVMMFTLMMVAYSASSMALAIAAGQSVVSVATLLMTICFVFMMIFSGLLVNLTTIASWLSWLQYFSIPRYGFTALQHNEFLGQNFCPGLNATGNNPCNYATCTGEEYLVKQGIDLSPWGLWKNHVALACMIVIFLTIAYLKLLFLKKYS
In words: [3H]-mitoxantrone accumulation and efflux assay in ABCG2-overexpressing cells. The data set is classed as cell-based.

For data set [2], the target named is T1, ATP-binding cassette subfamily G member 2 (ABCG2). In words: biochemical.

As to `COc1ccc2c3c([nH]c2c1)[C@H](C=C(C)C)N1C(=O)[C@@H]2CCCN2C(=O)[C@@H]1C3` [Fumitremorgin C], the “[3H]-mitoxantrone accumulation and efflux assay in ABCG2-overexpressing cells (1)” value in data set [1] is “efficacy of cabozantinib on increasing intracellular accumulation of [^3H]-MX in resistant cell line is comparable to that of FTC”.
Turning to `COc1cc2nccc(Oc3ccc(NC(=O)C4(C(=O)Nc5ccc(F)cc5)CC4)cc3)c2cc1OC` [cabozantinib], a half-maximal effect in data set [2] (EC50) was put at 734 nM.

Source of the values: paper PMC5392419 (Pharmacological research, 2017).
